Experimental data as given in PMC10141580, “Cyclic Dichalcogenides Extend the Reach of Bioreductive Prodrugs to Harness Thiol/Disulfide Oxidoreductases: Applications to seco-Duocarmycins Targeting the Thioredoxin System” (ACS Central Science, 2023).
Where “and” joins values, the source holds several entries; their conditions need not be identical. Equal values may be shown once. Read-outs that look alike come from different tables or passages of the source.

System: panel of 140 standard cancer cell lines
Assay: ProliFiler-140 cancer cell line screen (CellTiterGlo, 72 h)
Format: cell-based
Protocol: Incubations were performed for 72 h before automated viability readout with CellTiterGlo (Figure 8).
End of Figure S11 (part 5 of 5): ProliFiler-140 cancer cell line screening for cytotoxicity of the prodrugs.
8-data-point dose response curves from CellTiter-Glo® viability readout.
ProliFiler-140 cell line panel part V

SMILES: COc1cc2cc(C(=O)N3C[C@@H](CCl)c4c3cc(OC(=O)N(CCC(=O)N3CCN(C)CC3)[C@H]3CCSSC3)c3ccccc43)[nH]c2c(OC)c1OC [P-SS60-CBI-TMI]
- Reductive Activation Index (786-O (Kidney)): 5.22
- IC50 (786-O (Kidney), read-out: IC50 [M] (ProliFiler-140)): 2.26e-08 M and 2.3e-08 M
- Reductive Activation Index (A172 (Brain)): 4.87
- IC50 (A172 (Brain), read-out: IC50 [M] (ProliFiler-140)): 1.18e-07 M and 1.2e-07 M
- Reductive Activation Index (A375 (Skin)): 5.08
- IC50 (A375 (Skin), read-out: IC50 [M] (ProliFiler-140)): 3.23e-08 M and 3.2e-08 M
- Reductive Activation Index (A427 (Lung)): 5.0 and 5.03
- IC50 (A427 (Lung), read-out: IC50 [M] (ProliFiler-140)): 1.6e-07 M and 1.64e-07 M
- IC50 (A431 (Skin), read-out: IC50 [M] (ProliFiler-140)): 4.05e-08 M and 4e-08 M
- Reductive Activation Index (A498 (Kidney)): 5.96
- IC50 (A498 (Kidney), read-out: IC50 [M] (ProliFiler-140)): 5.04e-08 M and 5e-08 M
- IC50 (A498, read-out: IC50): 5e-08 M
- Reductive Activation Index (A549 (Lung)): 6.4
- IC50 (A549 (Lung), read-out: IC50 [M] (ProliFiler-140)): 1.2e-07 M
- IC50 (A549, read-out: IC50): 1.2e-07 M
- IC50 (A2058 (Skin), read-out: IC50 [M] (ProliFiler-140)): 1.5e-08 M
- IC50 (A2780 (Ovary), read-out: IC50 [M] (ProliFiler-140)): 1.2e-08 M
- Reductive Activation Index (AsPC-1 (Pancreas)): 8.2
- IC50 (AsPC-1 (Pancreas), read-out: IC50 [M] (ProliFiler-140)): 2.6e-07 M and 2.63e-07 M
- Reductive Activation Index (BEN (Lung)): 13
- IC50 (BEN (Lung), read-out: IC50 [M] (ProliFiler-140)): 1.1e-07 M and 1.12e-07 M
- Reductive Activation Index (BT-20 (Breast)): 4.6
- IC50 (BT-20 (Breast), read-out: IC50 [M] (ProliFiler-140)): 2.4e-07 M and 2.42e-07 M
- fold-change of IC50 relative to P-CC60 (BxPC-3): 6
- IC50 (BxPC-3 (Pancreas), read-out: IC50 [M] (ProliFiler-140)): 1.08e-07 M and 1.1e-07 M
- IC50 (COLO 205, read-out: IC50): 1.6e-07 M
- IC50 (COR-L279 (Lung), read-out: IC50 [M] (ProliFiler-140)): 1.4e-08 M and 1.43e-08 M
- IC50 (COV434 (Ovary), read-out: IC50 [M] (ProliFiler-140)): 2.2e-08 M and 2.24e-08 M
- Reductive Activation Index (Caki-1 (Kidney)): 5.23
- IC50 (Caki-1 (Kidney), read-out: IC50 [M] (ProliFiler-140)): 6.29e-08 M and 6.3e-08 M
- Reductive Activation Index (Caki-2 (Kidney)): 7.2
- IC50 (Caki-2 (Kidney), read-out: IC50 [M] (ProliFiler-140)): 2.1e-07 M
- Reductive Activation Index (Calu-6 (Lung)): 6.64
- IC50 (Calu-6 (Lung), read-out: IC50 [M] (ProliFiler-140)): 5.16e-08 M and 5.2e-08 M
- Reductive Activation Index (Colo 205 (Colon)): 4.9
- IC50 (Colo 205 (Colon), read-out: IC50 [M] (ProliFiler-140)): 1.6e-07 M and 1.57e-07 M
- Reductive Activation Index (DLD-1 (Colon)): 4.69 and 4.7
- IC50 (DLD-1 (Colon), read-out: IC50 [M] (ProliFiler-140)): 1.69e-07 M and 1.7e-07 M
- IC50 (DU-145 (Prostate), read-out: IC50 [M] (ProliFiler-140)): 3.6e-08 M and 3.58e-08 M
- IC50 (DV90 (Lung), read-out: IC50 [M] (ProliFiler-140)): 1.3e-08 M and 1.32e-08 M
- IC50 (Detroit562 (Head/Neck), read-out: IC50 [M] (ProliFiler-140)): 4.27e-08 M and 4.3e-08 M
- Reductive Activation Index (EFM-19 (Breast)): 4.2 and 4.18
- IC50 (EFM-19 (Breast), read-out: IC50 [M] (ProliFiler-140)): 2.3e-07 M
- Reductive Activation Index (EFM-192A (Breast)): 5.9
- IC50 (EFM-192A (Breast), read-out: IC50 [M] (ProliFiler-140)): 3e-07 M and 3.01e-07 M
- Reductive Activation Index (EFO-27 (Ovary)): 5.7
- IC50 (EFO-27 (Ovary), read-out: IC50 [M] (ProliFiler-140)): 1.6e-07 M and 1.58e-07 M
- IC50 (EPLC-272H (Lung), read-out: IC50 [M] (ProliFiler-140)): 7.9e-08 M
- Reductive Activation Index (H4 (Brain)): 5.36
- IC50 (H4 (Brain), read-out: IC50 [M] (ProliFiler-140)): 1.51e-08 M and 1.5e-08 M
- Reductive Activation Index (H460 (Lung)): 7.2
- IC50 (H460 (Lung), read-out: IC50 [M] (ProliFiler-140)): 7.1e-09 M and 7.11e-09 M
- IC50 (H1299 (Lung), read-out: IC50 [M] (ProliFiler-140)): 7.85e-08 M and 7.9e-08 M
- IC50 (H2228 (Lung), read-out: IC50 [M] (ProliFiler-140)): 5.68e-08 M and 5.7e-08 M
- IC50 (HCC38 (Breast), read-out: IC50 [M] (ProliFiler-140)): 1.9e-08 M
- Reductive Activation Index (HCC202 (Breast)): 7.1
- IC50 (HCC202 (Breast), read-out: IC50 [M] (ProliFiler-140)): 1.3e-07 M and 1.26e-07 M
- Reductive Activation Index (HCC827 (Lung)): 7.3
- IC50 (HCC827 (Lung), read-out: IC50 [M] (ProliFiler-140)): 1.9e-07 M
- Reductive Activation Index (HCC 1569 (Breast)): 8.2
- IC50 (HCC 1569 (Breast), read-out: IC50 [M] (ProliFiler-140)): 1.2e-07 M and 1.21e-07 M
- IC50 (HCT116 (Colon), read-out: IC50 [M] (ProliFiler-140)): 6.94e-08 M and 6.9e-08 M
- Reductive Activation Index (HCT-15 (Colon)): 5.23
- IC50 (HCT-15 (Colon), read-out: IC50 [M] (ProliFiler-140)): 1.04e-07 M and 1e-07 M
- IC50 (HCT-15, read-out: IC50): 1e-07 M
- Reductive Activation Index (HEC-1-A (Endometrium)): 6.5
- IC50 (HEC-1-A (Endometrium), read-out: IC50 [M] (ProliFiler-140)): 2.8e-07 M and 2.85e-07 M
- Reductive Activation Index (HEC-1-B (Endometrium)): 4.0
- IC50 (HEC-1-B (Endometrium), read-out: IC50 [M] (ProliFiler-140)): 8.3e-07 M and 8.33e-07 M
- IC50 (HL-60 (Blood), read-out: IC50 [M] (ProliFiler-140)): 1.8e-08 M and 1.83e-08 M
- Reductive Activation Index (HT-29 (Colon)): 5.3
- IC50 (HT-29 (Colon), read-out: IC50 [M] (ProliFiler-140)): 1.9e-07 M and 1.88e-07 M
- IC50 (HT-29, read-out: IC50): 1.9e-07 M
- IC50 (HT-1080 (Fibrosarcoma), read-out: IC50 [M] (ProliFiler-140)): 5.01e-08 M and 5e-08 M
- Reductive Activation Index (HeLa (Ovary)): 13.55
- Reductive Activation Index (Hep3B2.1-7 (Liver)): 5.6
- IC50 (Hep3B2.1-7 (Liver), read-out: IC50 [M] (ProliFiler-140)): 2.4e-07 M and 2.37e-07 M
- Reductive Activation Index (Hs 746T (Stomach)): 7.7
- IC50 (Hs 746T (Stomach), read-out: IC50 [M] (ProliFiler-140)): 1.3e-07 M and 1.29e-07 M
- Reductive Activation Index (HuH7 (Liver)): 5.70
- IC50 (HuH7 (Liver), read-out: IC50 [M] (ProliFiler-140)): 1.14e-07 M and 1.1e-07 M
- Reductive Activation Index (Hutu 80 (Duodenum)): 5.42 and 5.4
- IC50 (Hutu 80 (Duodenum), read-out: IC50 [M] (ProliFiler-140)): 9.92e-09 M and 9.9e-09 M
- IC50 (Ishikawa (Endometrium), read-out: IC50 [M] (ProliFiler-140)): 7.1e-09 M and 7.07e-09 M
- IC50 (J82 (Bladder), read-out: IC50 [M] (ProliFiler-140)): 9.88e-08 M and 9.9e-08 M
- Reductive Activation Index (JIMT-1 (Breast)): 8.4
- IC50 (JIMT-1 (Breast), read-out: IC50 [M] (ProliFiler-140)): 1.9e-07 M
- IC50 (JVM-3 (Blood), read-out: IC50 [M] (ProliFiler-140)): 8.72e-09 M and 8.7e-09 M
- IC50 (Jurkat (Blood), read-out: IC50 [M] (ProliFiler-140)): 1.64e-08 M and 1.6e-08 M
- Reductive Activation Index (K562 (Blood)): 5.3
- IC50 (K562 (Blood), read-out: IC50 [M] (ProliFiler-140)): 2.1e-07 M and 2.07e-07 M
- Reductive Activation Index (KARPAS 299 (Blood)): 4.42
- IC50 (KARPAS 299 (Blood), read-out: IC50 [M] (ProliFiler-140)): 1.6e-07 M
- Reductive Activation Index (KG-1 (Blood)): 4.67
- IC50 (KG-1 (Blood), read-out: IC50 [M] (ProliFiler-140)): 1.33e-07 M and 1.3e-07 M
- Reductive Activation Index (KG-1 a (Blood)): 5.26
- IC50 (KG-1 a (Blood), read-out: IC50 [M] (ProliFiler-140)): 1.05e-07 M and 1e-07 M
- IC50 (KMS-12-BM (Blood), read-out: IC50 [M] (ProliFiler-140)): 6.64e-08 M and 6.6e-08 M
- Reductive Activation Index (Kato III (Stomach)): 4.3
- IC50 (Kato III (Stomach), read-out: IC50 [M] (ProliFiler-140)): 3.7e-07 M and 3.72e-07 M
- Reductive Activation Index (LN229 (Brain)): 5.21
- IC50 (LN229 (Brain), read-out: IC50 [M] (ProliFiler-140)): 1.39e-07 M and 1.4e-07 M
- IC50 (LOU-NH91 (Lung), read-out: IC50 [M] (ProliFiler-140)): 7.5e-08 M and 7.46e-08 M
- IC50 (LOVO (Colon), read-out: IC50 [M] (ProliFiler-140)): 3.37e-08 M and 3.4e-08 M
- IC50 (LP-1 (Blood), read-out: IC50 [M] (ProliFiler-140)): 1.7e-07 M and 1.69e-07 M
- Reductive Activation Index (LnCap (Prostate)): 8.0
- IC50 (LnCap (Prostate), read-out: IC50 [M] (ProliFiler-140)): 1.1e-07 M and 1.12e-07 M
- Reductive Activation Index (M07e (Blood)): 8.55
- IC50 (M07e (Blood), read-out: IC50 [M] (ProliFiler-140)): 1.62e-08 M and 1.6e-08 M
- Reductive Activation Index (MCAS (Ovary)): 6.5 and 6.53
- IC50 (MCAS (Ovary), read-out: IC50 [M] (ProliFiler-140)): 1.3e-07 M and 1.25e-07 M
- IC50 (MCF-7 (Breast), read-out: IC50 [M] (ProliFiler-140)): 4.5e-08 M and 4.48e-08 M
- IC50 (MCF-7, read-out: IC50): 4.5e-08 M
- Reductive Activation Index (MDA MB 231 (Breast)): 4.24
- IC50 (MDA MB 231 (Breast), read-out: IC50 [M] (ProliFiler-140)): 1.74e-07 M and 1.7e-07 M
- Reductive Activation Index (MDA MB 435 (Skin)): 6.1
- IC50 (MDA MB 435 (Skin), read-out: IC50 [M] (ProliFiler-140)): 1.8e-07 M and 1.76e-07 M
- IC50 (MDA-MB-468 (Breast), read-out: IC50 [M] (ProliFiler-140)): 3.1e-08 M
- IC50 (MDA-MB-468, read-out: IC50): 3.1e-08 M
- IC50 (MEC-1 (Blood), read-out: IC50 [M] (ProliFiler-140)): 1.5e-08 M and 1.51e-08 M
